From patent publication US20160264684A1, “GLYCAN-INTERACTING COMPOUNDS AND METHODS OF USE” (SIAMAB THERAPEUTICS, INC., priority 2013, published 2016)

Experiments:
E3-STn cells = experiment: E3-STn transfected murine breast tumor allograft model, tumor volume; format: in vivo, mouse; conditions: 7G9-1A8 25 mg/kg ip twice weekly 3 weeks, Paclitaxel daily 5 days
Description: 3 test articles were evaluated during the study.
Standard deviation values are listed in parenthesis.

GcSTn-PAA ELISA = format: binding; conditions: 200 ng/well PAA antigen; 1:5 dilutions from 1 μM
Description: (§1) Anti-STn serum titer is determined using a murine anti-STn bovine submaxillary mucin (BSM) ELISA together with serum profiles observed by glycan microarray. 96-well plates are coated with 1 μg/well of BSM and incubated overnight at 4° C. O-acetylation of BSM antigen is removed by treating wells with 0.1 M sodium hydroxide. Specific binding to STn is determined by treatment of wells with sodium periodate. Periodate treatment destroys the C6 side chain of sialic acid; therefore antibodies raised against STn should not bind to periodate-treated wells. Wells are blocked with PBS 1% ovalbumin (OVA). Serum samples to be assayed are serially diluted in PBS 1% OVA. […] Detection of anti-STn antibodies present in serum is determined using an HRP-conjugated polyclonal goat anti-mouse IgG antibody (Jackson Immunoresearch, West Grove, Pa.). […] Optical densities are measured at 490 nm using a Spectramax microplate reader (Molecular Devices, Sunnyvale, Calif.). The serum titer is obtained by comparison of OD values with a cutoff value calculated as two standard deviations above the mean of optical density values of the negative control. […]
(§2) 18D2 and 18C7 antibodies were further characterized by ELISA comprising antigens other than BSM. […] Binding of anti-STn antibodies was detected using a goat anti-mouse IgG-HRP conjugated antibody (Jackson Immunoresearch Laboratories, West Grove, Pa.). […]

AcSTn-PAA ELISA = format: binding; conditions: 200 ng/well PAA antigen; 1:5 dilutions from 1 μM
Description: as §1, §2

[1] = Glycan array STn specificity and anti-STn antibody group; format: binding; parameters: key to Group: Group 1 antibodies according to the invention are antibodies capable of binding AcSTn and GcSTn; Antibodies were assigned to Group 2 based on their ability to bind STn as well as some related structures that include an O-linkage to serine or threonine; Group 3 antibodies are antibodies capable of binding STn, but may also bind a broader set of related structures; Group 4 antibodies are capable of binding to both AcSTn and GcSTn as well as the un-sialylated Tn antigen; conditions: assigned from flow cytometry and glycan array analysis
Description: Optimized glycan arrays comprise 71 chemically synthesized and well-defined glycans, most of which comprise Neu5Ac and Neu5Gc glycan pairs.
300 ml of epoxy blocking buffer is prepared by combining 15 ml of 2 M Tris buffer (pH 8) with 0.9 ml of 16.6 M ethanolamine and 284.1 ml of distilled water. The solution is filtered using a […] nitrocellulose membrane. The epoxy buffer solution as well as 1 L of distilled water are pre-warmed to 50° C. Glass slides are arranged in a slide holder and quickly submerged in a staining tub with the warmed epoxy blocking buffer. Slides are incubated in the epoxy blocking buffer for 1 hour at 50° C. with periodic shaking to deactivate epoxy binding sites. Next, slides are rinsed and blocked with PBS with 1% OVA at 25° C. for one hour. Serum samples are diluted 1:1000 in PBS with 1% OVA and added to the glycan array for one hour at 25° C. After extensive washing, binding of polyclonal serum antibodies are detected by incubating glycan microarray slides with Cy3-conjugated anti-mouse IgG (Jackson Immunoresearch, West Grove, Pa.) for one hour. Slides are then washed extensively, dried and scanned with a Genepix 4000B scanner (Laser at 100%; gain at 350; 10 μm pixels). Raw data from scanned images are extracted using the Genepix software and analysis of raw data is carried out.
Based on characterization data, anti-STn antibodies developed from Group 6 and Group 8 mice were categorized by anti-STn group number. In some cases, antibodies were assigned to Group 1. Group 1 antibodies according to the invention are antibodies capable of binding AcSTn and GcSTn. Such antibodies may have the ability to associate with a wider range of STn structures. The large oval in FIG. 1A indicates the portion of STn recognized by Group 1 antibodies. […] Also listed in the Table is the antibody Isotype for each antibody as determined by the IsoStrip mouse monoclonal antibody isotyping kit (Roche Diagnostics GmbH, Manheim, Germany).

[2] = system: STn on bovine submaxillary mucin (BSM); experiment: Anti-STn BSM ELISA; format: binding; conditions: BSM ELISA, sodium periodate treated wells
Description: Anti-STn serum titer is determined using a murine anti-STn bovine submaxillary mucin (BSM) ELISA together with serum profiles observed by glycan microarray. 96-well plates are coated with 1 μg/well of BSM and incubated overnight at 4° C. O-acetylation of BSM antigen is removed by treating wells with 0.1 M sodium hydroxide. Specific binding to STn is determined by treatment of wells with sodium periodate. Periodate treatment destroys the C6 side chain of sialic acid; therefore antibodies raised against STn should not bind to periodate-treated wells. Wells are blocked with PBS 1% ovalbumin (OVA). Serum samples to be assayed are serially diluted in PBS 1% OVA. A commercially available mouse anti-STn monoclonal antibody, 3F1 (SBH Sciences, Natick, Mass.) is used as a positive control. This antibody is also serially diluted in PBS with 1% OVA. A pool of serum from naïve wild type mice is used for the preparation of negative control samples. Detection of anti-STn antibodies present in serum is determined using an HRP-conjugated polyclonal goat anti-mouse IgG antibody (Jackson Immunoresearch, West Grove, Pa.). The reaction is stopped by addition of sulfuric acid (1.6 M). Optical densities are measured at 490 nm using a Spectramax microplate reader (Molecular Devices, Sunnyvale, Calif.). The serum titer is obtained by comparison of OD values with a cutoff value calculated as two standard deviations above the mean of optical density values of the negative control. […]
Binding affinities of 18D2 and 18C7 to STn were compared to commercially available anti-STn antibodies using the BSM ELISA assay described in Example 2. […] Antibody binding was determined using HRP-conjugated polyclonal goat anti-mouse IgG antibody (Jackson Immunoresearch Laboratories, West Grove, Pa.). […] Optical densities were measured at 490 nm using a Spectramax microplate reader. […] The half maximal effective concentration (EC50) for each antibody was calculated using a non-linear regression analysis carried out on periodate subtracted data.

## CC(=O)O[C@H]1C(=O)[C@@]2(C)[C@H]([C@H](OC(=O)c3ccccc3)[C@]3(O)C[C@H](OC(=O)[C@H](O)[C@@H](NC(=O)c4ccccc4)c4ccccc4)C(C)=C1C3(C)C)[C@]1(OC(C)=O)CO[C@@H]1C[C@@H]2O [Paclitaxel, reference compound]
E3-STn cells; day 1 of treatment
  Average Tumor Volume: 112.7 mm^3
E3-STn cells; day 4 of treatment
  Average Tumor Volume: 179.5 mm^3
E3-STn cells; day 6 of treatment
  Average Tumor Volume: 191.4 mm^3
E3-STn cells; day 8 of treatment
  Average Tumor Volume: 198.6 mm^3
E3-STn cells; day 11 of treatment
  Average Tumor Volume: 199.8 mm^3
E3-STn cells; day 13 of treatment
  Average Tumor Volume: 227.0 mm^3
E3-STn cells; day 15 of treatment
  Average Tumor Volume: 248.4 mm^3
E3-STn cells; day 18 of treatment
  Average Tumor Volume: 290.5 mm^3
E3-STn cells; day 20 of treatment
  Average Tumor Volume: 328.2 mm^3
E3-STn cells; day 22
  Average Tumor Volume: 331.8 mm^3
E3-STn cells; day 26
  Average Tumor Volume: 344.0 mm^3
E3-STn cells; day 27
  Average Tumor Volume: 350.1 mm^3
E3-STn cells; day 29
  Average Tumor Volume: 352.3 mm^3
E3-STn cells; day 32
  Average Tumor Volume: 355.1 mm^3
E3-STn cells; day 34
  Average Tumor Volume: 358.4 mm^3
E3-STn cells; day 36
  Average Tumor Volume: 282.0 mm^3
E3-STn cells; day 39
  Average Tumor Volume: 267.2 mm^3
E3-STn cells; day 41
  Average Tumor Volume: 276.4 mm^3

B1: B72.3: commercial anti-STn antibody, TAG-72 clone B72.3 (Thermo Fisher Scientific) (antibody, chains of the INN, looked up, V domains shown)
VH: QVQLQQSDAELVKPGASVKISCKASGYTFTDHAIHWAKQKPEQGLEWIGYISPGNDDIKYNEKFKGKATLTADKSSSTAYMQLNSLTSEDSAVYFCKRSYYGHWGQGTTLTVSS
VL: DIQMTQSPASLSVSVGETVTITCRASENIYSNLAWYQQKQGKSPQLLVYAATNLADGVPSRFSGSGSGTQYSLKINSLQSEDFGSYYCQHFWGTPYTFGGGTRLEIK
GcSTn-PAA ELISA
  EC50: 27.8 nM
AcSTn-PAA ELISA
  EC50: 71.3 nM

B2: 18C7: anti-STn monoclonal antibody from mouse #4436; IgG2c κ; SEQ ID NO 4 and 5 (antibody, V domains shown)
VH: QVTLKESGPGILQPSQTLSLTCSFSGFSLSTFGMGVGWIRQPSGKGLEWLAHIWWDDDKYYNPALKSRLTISKDTSKNQVFLKIANVDTADTATYYCARIAYYYGSERDYWGQGTTLTVSS
VL: QIVLTQSPAIMSASPGEKVTMTCSASSSISYMHWYHQKPGTSPKRWIYDTSKLASGVPARFSGSGSGTSYSLTISSMEAEDAATYYCHQRSSYTFGGGTKLEIKR
[1]
  Group: 1
[2]
  binding to periodate-treated wells: did not bind
